Assay results taken from patent US11832638B2, “N-acyl derivatives of gamma amino-butyric acid and beta alanine as food flavouring compounds” (GIVAUDAN SA, priority 2012, dated 2023).

Legend:
[1] = Tasting in butter (Blueband halvarine); conditions: 1 ppm in Blueband halvarine 39% fat 0.35% salt
Method: (§1) The following formulations were prepared and tasted by trained panelists.
Blueband “halvarine” 39% fat 0.35% salt
C18:2-gaba added at 1 ppm.

Tasting in cheese sauce = conditions: 0.5 PPM in cheese sauce 5% fat 1.6% salt
Method: as §1
Cheese sauce: 5% fat 1.6% salt

[2] = Tasting of chicken filet fried in oil; conditions: 2.0 PPM in 135 gram frying oil (82% fat)
Method: Differentiator high temperature 100-250 degrees Celsius in a frying in oil process
C18:2-gaba @ 2.0 PPM in 135 gram frying oil (blue band 82% Fat) 450 gram chicken filet 2 minutes high fire and 5 minutes medium fire.

Tasting of baked pizza = conditions: 0.5 PPM in the crust and 0.5 PPM in the tomato sauce, baked in hot air oven at 200 degrees Celsius
Source text: Differentiator high temperature 100-250 degrees Celsius in hot air baking process
C18:2-gaba @ 0.5 PPM in the crust and @ 0.5 PPM in the tomato sauce
The pizza was topped off with cheese and baked in a hot air oven @ 200 degrees Celsius

[3] = Tasting in air expanded base with cheese seasoning; conditions: air expanded base 3% fat
Method: Air Expanded Base An air expanded base (Rice, wheat, Tapioca, potato, salt, sugar, modified starch), containing 3% fat and flavored with cheese seasoning containing salt, MSG, dairy, organic acids, sugars and flavor. The following compounds were added to the base at the indicated levels and the tasting results are reported: […]

[4] = UHT milk cream flavoured, non sweetened, different fat levels; conditions: 2 ppm, cream flavour 0.03%
Method: The following tests were carried out on dairy products processed by fermentation, pasteurization or UHT. The products contain fat, protein and calcium.
UHT Milk Cream Flavoured, Non Sweetened and Different Fat Levels
In a UHT milk containing 0% 1.5% and 3% fat, flavoured with a proprietary cream flavour dosed at 0.03%
C18:2-gaba was added at 2 ppm.
Samples were evaluated by expert tasters.
Tasters were asked to describe the samples focusing on authentic taste , mouthfeel, fullness, salivation, sweetness, juiciness, richness, long lastingness and fattiness.

[5] = Yoghurt cream flavoured non-sweetened, different fat levels; conditions: 2 ppm, cream flavour 0.03%
Method: Yoghurt Cream Flavoured Non-sweetened And Different Fat Levels
In a Yoghurt containing 0% 1.5% and 3% fat, flavoured with proprietary cream flavour dosed at 0.03%, C18:2-gaba was added at 2 ppm. Samples were evaluated by expert tasters. Tasters were asked to describe the samples focusing on authentic taste, mouthfeel, fullness, salivation, sweetness, juiciness, richness, long lastingness and fattiness.

[6] = Strawberry flavoured sugar sweetened yoghurt; conditions: 2 ppm, 1.5% fat yoghurt base, 8% sucrose, strawberry flavour 0.015%
Source text: Strawberry Flavoured Sugar Sweetened Yoghurt
The base consisted of a 1.5% fat yoghurt base, sweetened with 8% sucrose by weight, flavoured with a proprietary strawberry flavour @ 0.015%.

[7] = Vanilla flavoured milk 3.0% fat; conditions: 2 ppm, 4% sugar, vanillin 10 ppm, vanilla extract 0.03%
Method: Vanilla Flavoured Milk 3.0% Fat
In a 3% fat milk drink, sweetened with 4% sucrose by weight, flavoured with Vaniline @ 10 ppm and a Vanilla extract @ 0.03% C18:2-gaba, was added at 0.5 or 2 ppm.
Samples were evaluated by expert tasters. Tasters were asked to describe the samples focusing on authentic taste, mouthfeel, fullness, salivation, sweetness, juiciness, richness, long lastingness and fattiness.
Base: Milk 3% fat, 4% sugar, vanillin 10 ppm, vanilla extract 0.03%

[8] = Mango flavoured still beverage with different levels of juice; conditions: 1 ppm, 8% sucrose, 0.1% citric acid, mango flavor 0.05%
Method: Mango Flavoured Still Beverage Containing Different Levels Of Juice.
In a Mango flavoured still beverage, sweetened with 8% sucrose and containing 0.1% citric acid and 1%, 4% and 6% clear mango juice flavoured with a proprietary Mango flavour @ 0.05%, C18:2-gaba was added, as such.
All samples were evaluated by expert tasters. Tasters were asked to describe the samples focusing on authentic taste, juicy mouthfeel, enhancement, richness, juiciness, long lastingness, salivation, sweetness.
In a Mango flavoured still beverage, sweetened with 8% sucrose & containing 0.1% citric acid and 1% clear mango juice flavoured with proprietary Mango flavour @ 0.05%, C18:2-gaba was added, as such.
Base is water, 8% sucrose, 0.1% citric acid, 1% clear mango juice (very low juice %) , flavoured with Mango flavor, dosed at 0.05%
In a Mango flavoured still beverage, sweetened with 8% sucrose & containing 0.1% citric acid and 4% clear mango juice flavoured with Mango flavour @ 0.05% , C18:2-gaba and C18:2-Pro were added, as such (separate) and in combination.
Base is water, 8% sucrose, 0.1% citric acid, 4% clear mango juice (30% reduced juice), flavoured with Mango flavor, dosed at 0.05%
A Mango-flavoured still beverage, sweetened with 8% sucrose & containing 0.1% citric acid and 6% clear mango juice flavoured with Mango flavour @ 0.05%, C18:2-gaba
Base is water, 8% sucrose, 0.1% citric acid, 6% clear mango juice (full juice), flavoured with Mango flavor, dosed at 0.05%.

[9] = Test on organic acids in a beverage; conditions: 1 ppm, water, 7% sucrose
Method: Testing With Beverages Containing Organic Acids From 0.01% to 7%
Test 18:2 Gaba on Organic Acids in a Beverage.
In a solution containing water, 7% sucrose by weight, and different organic acids, C18:2-gaba was added at 1 ppm. We observed taste effects on the acid perception upon addition of C18:2-gaba.
Base is water, 7% Sucrose by weight, Tartaric acid at 0.121% by weight
Base is water, 7% Sucrose by weight, Malic acid at 0.1081% by weight
Base is water, 7% Sucrose by weight, Citric acid at 0.1% by weight
Base is water, 7% Sucrose by weight, Fumaric acid at 0.0936% by weight

[10] = Comparison in a strawberry drink; conditions: 2 ppm, 7% sucrose, 0.1% citric acid, strawberry flavour 0.015%
Source text: Comparison in a Strawberry Drink
Base is 7% sucrose, 0.1% citric acid, and a proprietary strawberry flavour @0.015%

[11] = Test in peach flavoured drink; conditions: 1 ppm, water, 8% sugar, 0.1% citric acid, peach flavour 0.05%
Source text: Test in Peach Flavoured Drink:
Base is water, 8% sugar, 0.1% citric acid, and proprietary peach flavour at 0.05%

**Q.** Which results are given for `CCCCC/C=C\C/C=C\CCCCCCCC(=O)NCCCC(=O)O` [C18:2-gaba]?
**A.** tasting result (trained panelists) [1]: more authentic butter taste, with more mouthfeel; tasting result (trained panelists) (Tasting in cheese sauce): Full, Salty, cheese bite expanding; taste of the chicken ([2]; 450 gram chicken filet, 2 minutes high fire and 5 minutes medium fire): more juicy, succulent, lingering more white meat; taste of the frying oil ([2]; after frying chicken filet): more savoury golden brown notes; taste of crust, tomato and aftertaste of pizza (Tasting of baked pizza): less dry, more succulent and the tomato was richer, sweeter and the total lingering aftertaste was very rich and pleasant; tasting result ([3]; 0.5 ppm): Increased dairy, cheese; tasting result ([3]; 1 ppm): Fatty full, cheesy, cheese crust, long lasting, cover base; description by expert tasters ([4]; UHT milk 0% fat): Very creamy, milky, long lasting; description by expert tasters ([4]; UHT milk 1.5% fat): very creamy, milky, long lasting, salivating; description by expert tasters ([4]; UHT milk 3.0% fat): very creamy, milky, long lasting, taste like whipped cream; description by expert tasters ([5]; yoghurt 0% fat): less acdic, slight creamy aftertaste; description by expert tasters ([5]; yoghurt 1.5% fat): very creamy, thick, nice long lasting, whipped cream note; description by expert tasters ([5]; yoghurt 3% fat): less acidic, much more creamy, very long lasting creamy aftertaste; taste description [6]: very creamy and fresh strawberry; description by expert tasters [7]: beany, fatty, authentic, sweet; description by expert tasters ([8]; 1% clear mango juice): fatty skin-like, very juicy, authentic mango, much more mouthfeel, long lasting mango taste, mouthfeel is close to the full juice product; description by expert tasters ([8]; 4% clear mango juice): fatty skin-like, very juicy, authentic mango, long lasting mango taste, more mouthfeel than the full juice product; description by expert tasters ([8]; 6% clear mango juice (full juice)): fatty skin-like, very thick juicy, authentic mango, long lasting mango taste, rich; taste effects on the acid perception ([9]; citric acid 0.1% by weight): decreased sharp acidic perception, full body mouthfeel, higher higher mouth watering, and an impression of the juicy notes of citrus fruit (orange, lemon); taste effects on the acid perception ([9]; fumaric acid 0.0936% by weight): decreased sharp acidic perception, full body mouthfeel effects, higher sweet effects, and an impression of the full notes characteristic of sweet red & vanillic flavor types (vanilla, chocolate, raspberry, cherry, especially benzaldhyde); taste effects on the acid perception ([9]; malic acid 0.1081% by weight): decreased sharp acidic perception, give fuller body, mouthfeel, higher mouthwatering, and an impression of the flesh and skin notes of fruit (apple); taste effects on the acid perception ([9]; tartaric acid 0.121% by weight): decreased sharp acidic perception, full body mouthfeel, higher mouthwatering, more immediate (upfront hit), and an impression of the flesh of fruit (grape, apple, banana, pear-like); taste description [10]: fatty mouthfeel, creamy strawberry, fruity and juicy; taste description [11]: fruity peach, long lasting, juicy and fatty skin like very authentic
